In article PMC7481357, “N-terminal Myristoylation Enhanced the Antimicrobial Activity of Antimicrobial Peptide PMAP-36PW” (Frontiers in Cellular and Infection Microbiology, 2020):
“Also recorded” adds a separate entry of the source. Residues, ends and D or L forms follow the SMILES beside them. *: point of attachment. Myristoyl = CCCCCCCCCCCCCC(=O)*

Tests used:
P. aeruginosa GIM 1.551 = type: cell-based, Pseudomonas aeruginosa
Method: (§1) The MICs of Myr-36PW in vitro were measured through microdilution in accordance with the Clinical and Laboratory Standards Institute (CLSI, [2020]). The bacterial cells were cultured for 12 h at 37°C in the appropriate medium and then diluted to 1 × 10^6 CFU/mL. Equal volumes (100 μL) of bacterial cell suspension and two-fold serially diluted different concentrations peptides (0.0039–256 μg/mL) were added to each well of the sterile 96-well plate. The samples were incubated for 18 h at 37°C. After incubation, the MICs of the peptides were determined by evaluating the growth based on the OD600 of the cultures.

S. aureus ATCC 25923 [1] = assay: Pneumonia (lung infection) model; type: in vivo, BALB/c mice; conditions: intranasal 40 μL, 1 μg/μL, once a day for 3 days; for Pathological scores of the lung sections: n = 5; for Bacterial CFU in lung homogenate: reduced vs PBS group P < 0.01, n = 5
Method: A pneumonia model in vivo was established as previously reported, with minor modification (Cortés et al., [2002]; Aoki et al., [2009]; Shi et al., [2018]). A total of 120 mice were randomly divided into two experimental models, one was intranasal inoculation of S. aureus ATCC 25923 (8.3 × 10^9 CFU/mL, 50 μL), and the other was intranasal inoculation of P. aeruginosa GIM 1.551 (4.5 × 10^10 CFU/mL, 50 μL). In the S. aureus ATCC 25923 model, 60 mice were divided into the following six groups of 10 mice each: no infection and treatment was used as a blank control, those with intranasal administration of PBS (40 μL) as the negative control group, those administered with benzylpenicillin potassium (40 μL, 1 μg/μL) as the positive control group, and the remaining three corresponded to Myr-36PW (40 μL, 1 μg/μL), PMAP-36PW (40 μL, 1 μg/μL), and PMAP-36 groups (40 μL, 1 μg/μL). The procedure for P. aeruginosa GIM 1.551 model is the same as for S. aureus ATCC 25923 model, except for the use of ampicillin sodium as the positive control. After 4 h post-inoculation, treatment was initiated, once a day for 3 days. The mice were sacrificed 24 h after the treatment. Changes in the appearance of lung tissues were observed, and lung tissues were removed aseptically from the mice. Half of the removed lung tissues were gently fixed in buffered formaldehyde solution for histopathological assessment by hematoxylin and eosin (H&E) staining. Pathological changes were scored to provide individual therapeutic status as described previously (Lei et al., [2018]). The remaining lung tissues were added with 1 mL of PBS, homogenized, and serially diluted. Bacterial CFU counts were determined.
Figure 8 Therapeutic effect for pneumonia by Myr-36PW in vivo. Mice were injected with S. aureus ATCC 25923 or P. aeruginosa GIM 1.551 to form pneumonia, and lungs (n = 5) in each group were collected on day 4 after intranasal bacterial inoculation. (A) Morphological changes of lung tissues. (B) Representative histopathological images of processed lung section with hematoxylin and eosin (H&E) staining. Images are presented at a magnification of 20×. a: inflammatory cell infiltration. b: the alveolar wall is thickened. c: alveolar wall congestion or alveolar hemorrhage. (C,D) Pathological scores of the lung sections. Scoring standard: 1 indicated no pathology, 2 indicated local pulmonary congestion and inflammatory cell infiltration, 3 indicated pulmonary congestion and a large number of inflammatory cell infiltration, affecting <20% of the section, 4 indicated pulmonary congestion and a large number of inflammatory cell infiltration, affecting 20–50% of the section, and 5 indicated pulmonary congestion and a large number of inflammatory cell infiltration, affecting >50% of the section. (E,F) Bacterial CFU in lung homogenate. BP is benzylpenicillin potassium, AS is ampicillin sodium. Data represent the mean ± SD of five individual experiments.

S. aureus ATCC 25923 [2] = assay: Subcutaneous abscess model; type: in vivo, BALB/c mice; conditions: injected 20 μL, 1 μg/μL, once a day for 3 days; for Bacterial CFU in abscess area: n = 5
Method: A subcutaneous abscess model in vivo was established as previously reported (Zhao et al., [2019]). The mouse dorsal region with 3.0 cm diameter was treated with hair pusher. A total of 120 mice were randomly divided into two experimental models, one was challenged with S. aureus ATCC 25923 (2.5 × 10^8 CFU/mL, 60 μL), and the other was challenged with P. aeruginosa GIM 1.551 (3.0 × 10^8 CFU/mL, 60 μL). In the S. aureus ATCC 25923 model, 60 mice were divided into six groups of 10 members. The mice with no infection and treatment was used as a blank control, those directly injected with PBS (20 μL) as the negative control group, those injected with benzylpenicillin potassium (20 μL, 1 μg/μL) as the positive control group, and the remaining three groups as the treatment groups injected with Myr-36PW (20 μL, 1 μg/μL), PMAP-36PW (20 μL, 1 μg/μL), and PMAP-36 (20 μL, 1 μg/μL). The procedure in P. aeruginosa GIM 1.551 model is the same as that in S. aureus ATCC 25923 model, except for the use of ampicillin sodium as a positive control. Treatment once a day for 3 days was initiated when the mice developed prominent pustules on their backs. A day after the treatment, the size of the abscess was observed, and its tissues were excised, homogenized, and serially diluted. Bacteria CFU counts were calculated.
Figure 10 Treatment efficacy of subcutaneous abscess by Myr-36PW in vivo. Mice were injected with S. aureus ATCC 25923 or P. aeruginosa GIM 1.551 to develop a subcutaneous abscess before treatment. (A) Changes in the abscess area of mice after 3 days treatment. (B,C) Quantitative analysis of bacterial CFU in abscess area that received 3 days treatment under various experimental conditions. The number of CFU in each treatment group was normalized by using the CFU of the experimental group divided by the CFU of the PBS group (100%). BP is benzylpenicillin potassium, AS is ampicillin sodium. Data represent the mean ± SD of five individual experiments. *P < 0.05 and **P < 0.01, compared with PBS. ^#P < 0.05 and ^##P < 0.01, compared with PMAP-36PW.

S. aureus ATCC 25923 [3] = type: cell-based, Staphylococcus aureus
Method: as §1

CC1(C)S[C@@H]2[C@H](NC(=O)Cc3ccccc3)C(=O)N2[C@H]1C(=O)O [Benzylpenicillin potassium]
MICs of different classes of antibiotics (P. aeruginosa GIM 1.551; P. aeruginosa GIM 1.551, * indicates resistant (CLSI, 2020)): 64 µg/mL
Lung histopathology (H&E) (S. aureus ATCC 25923 [1]): a complete alveolar structure, reduced blood stasis, and large reduction in inflammatory cells
Pathological scores of the lung sections (S. aureus ATCC 25923 [1]): lower scores than PMAP-36PW group (P < 0.05)
Bacterial CFU in lung homogenate (S. aureus ATCC 25923 [1]): reduced; also recorded: lower than that for PMAP-36PW group (P < 0.05)
Abscess area (S. aureus ATCC 25923 [2]): significantly reduced the abscess area and effectively suppressed its growth
Bacterial CFU in abscess area (S. aureus ATCC 25923 [2]): lower than that in PBS group (P < 0.01)
MICs of different classes of antibiotics (S. aureus ATCC 25923 [3]; S. aureus ATCC 25923, * indicates resistant (CLSI, 2020)): <0.25 µg/mL

CCCCCCCCCCCCCC(=O)NCC(=O)NCC(=O)N[C@@H](CCCNC(=N)N)C(=O)N[C@@H](Cc1ccccc1)C(=O)N[C@@H](CCCNC(=N)N)C(=O)N[C@@H](CCCNC(=N)N)C(=O)N[C@@H](CC(C)C)C(=O)N[C@@H](CCCNC(=N)N)C(=O)N[C@@H](CCCCN)C(=O)N[C@@H](CCCCN)C(=O)N[C@H](C(=O)N[C@@H](CCCNC(=N)N)C(=O)N[C@@H](CCCCN)C(=O)N[C@@H](CCCNC(=N)N)C(=O)N[C@@H](CC(C)C)C(=O)N[C@@H](CCCCN)C(=O)N[C@@H](CCCCN)C(=O)N[C@H](C(=O)NCC(=O)N[C@@H](CCCCN)C(=O)N[C@H](C(=O)N[C@@H](CC(C)C)C(=O)N[C@@H](CCCCN)C(=O)N[C@@H](Cc1c[nH]c2ccccc12)C(=O)N[C@H](C(=O)N[C@@H](Cc1c[nH]c2ccccc12)C(=O)N[C@@H](Cc1c[nH]c2ccccc12)C(=O)N[C@H](C(=O)N[C@H](C(=O)NCC(=O)N[C@@H](CO)C(=O)N[C@H](C(=O)N1CCC[C@H]1C(=O)N[C@@H](CC(C)C)C(=O)NCC(=O)N[C@@H](CS)C(=O)NCC(=O)O)[C@@H](C)CC)C(C)C)[C@@H](C)CC)[C@@H](C)CC)C(C)C)[C@@H](C)CC)[C@@H](C)O [Myr-36PW] (Myristoyl-GGRFRRLRKKTRKRLKKIGKVLKWIWWIVGSIPLGCG-OH; C-terminus assumed)
MICs (P. aeruginosa GIM 1.551; GIM 1.551, 18 h): 0.25 µg/mL
Lung histopathology (H&E) (S. aureus ATCC 25923 [1]): a complete alveolar structure, reduced blood stasis, and large reduction in inflammatory cells
Pathological scores of the lung sections (S. aureus ATCC 25923 [1]): lower scores than PMAP-36PW group (P < 0.05)
Bacterial CFU in lung homogenate (S. aureus ATCC 25923 [1]): reduced; also recorded: lower than that for PMAP-36PW group (P < 0.05)
Abscess area (S. aureus ATCC 25923 [2]): significantly reduced the abscess area and effectively suppressed its growth
Bacterial CFU in abscess area (S. aureus ATCC 25923 [2]): lower than that in PBS group (P < 0.01)
MICs (S. aureus ATCC 25923 [3]; ATCC 25923, 18 h): 0.0020 µg/mL
